Values of other authors, collected in patent publication US20190336443A1 (Navinta III Inc, priority 2018, published 2019).

How the values were obtained:
[1] = all animal species with adequate studies (rodents and rabbits)
[2] = pH sensitive

degradation in a liquid formulation [2]: readily degraded by hydrolysis
solubility in ethanol: slight solubility
Structure (SMILES): NC(=O)c1ncn([C@@H]2O[C@H](CO)[C@@H](O)[C@H]2O)n1 [Ribavirin, 1-beta-D-ribofuranosyl-1H-1,2,4-triazole-3-carboxamide]
teratogenic and/or embryocidal potential [1]: significant teratogenic and/or embryocidal potential
